Data: US20250367129A1, “Lipid Compounds and Uses Thereof” (Pfizer Inc., priority 2022, published 2025)

What was measured:
[1] = LNP size and polydispersity index by Malvern Zetasizer dynamic light scattering (CA HA modFlu mRNA LNPs); format: physicochemical; settings: DLS; for Size (nm): LNP of the ionizable lipid:cholesterol:DSPC:ALC-0159 about 46.3:42.7:9.4:1.6, N:P about 6:1, CA HA modFlu mRNA; for PDI: LNP with CA HA modFlu mRNA
Method: (§1) Lipid nanoparticles were prepared and tested according to the general procedures described in U.S. Pat. No. 9,737,619 (PCT Pub. No. WO2015/199952) and U.S. Pat. No. 10,166,298 (PCT Pub. No. WO 2017/075531) and PCT Pub. No. WO2020/146805. The novel ionizable lipids of the invention, cholesterol, distearoylphosphatidylcholine (DSPC) and ALC-0159 2-[(polyethylene glycol)-2000]-N,N ditetradecylacetamide were solubilized in ethanol at a molar ratio of about 46.3:42.7:9.4:1.6. Lipid nanoparticles were made by mixing the lipids containing organic phase with the mRNA containing aqueous phase using an N:P ratio of about 6:1. The mRNA was diluted in buffer. Syringe pumps were used to mix the ethanolic lipid solution with the mRNA aqueous solution. The ethanol was then removed, and the external buffer replaced with another buffer (e.g., Tris) by dialysis. Finally, the lipid nanoparticles were filtered.
(§2) Total RNA concentration and encapsulation efficiency was assessed using the RiboGreen RNA quantitation assay. RNA integrity pre and post formulation was monitored by Agilent Fragment Analyzer capillary gel electrophoresis. Malvern Zetasizer dynamic light scattering (DLS) was used to determine LNP size and polydispersity index (PDI). In vitro expression of the novel ionizable lipid nanoparticles was assessed in HEK293F and Hela cells similar to described in Example 72. Nuclear count and identification of cells stained positive for gene of interest was done on an Opera Phenix high content imager (PerkinElmer, USA).

[2] = Encapsulation efficiency, RiboGreen RNA quantitation assay (CA HA modFlu mRNA LNPs); format: physicochemical; settings: LNP with CA HA modFlu mRNA
Method: as §1, §2

HEK293F cells = experiment: In vitro expression of novel ionizable lipid nanoparticles, high content imaging (CA HA modFlu mRNA); format: cell-based; settings: LNP with CA HA modFlu mRNA
Method: (§3) Plated Hek293T or Hela cells were dosed with lipid nanoparticles in a total volume of 40 μl cell culture media and incubated overnight at 37° C. and 5% CO2. After fixation with 4% paraformaldehyde in PBS cells were washed in PBS containing 0.3% Triton-X100 and 3% BSA (w/v), followed by nuclear staining with Hoechst and antibody staining for the encoded gene of interest. Nuclear count and identification of cells stained positive for gene of interest was done on an Opera Phenix high content imager (PerkinElmer, USA).
as §1, §2

Hela cells = experiment: as above; format: cell-based; settings: LNP with CA HA modFlu mRNA
Method: as §3, §1, §2

| Compound | Size (nm) [1] [nm] | PDI [1] | EE % [2] [%] | EC50 Hek293F (ng/well) (HEK293F cells) | EC50 Hela (ng/well) (Hela cells) |
| --- | --- | --- | --- | --- | --- |
| CCCCCCCCC(CCCCCC)C(=O)OCC(COC(=O)C(CCCCCC)CCCCCCCC)N1CCC2(CCN(CCCCO)C2)CC1 (centres unmarked) [Example 6, 2-(2-(4-hydroxybutyl)-2,8-diazaspiro[4.5]decan-8-yl)propane-1,3-diyl bis(2-hexyldecanoate)] | 133 | 0.080 | 100 | 0.42 | 1.1 |
| CCCCCCCCC(CCCCCC)C(=O)OCC(COC(=O)C(CCCCCC)CCCCCCCC)N1CCC2(CC1)CN(CCCCO)C2 (centres unmarked) [Example 50, 2-(2-(4-hydroxybutyl)-2,7-diazaspiro[3.5]nonan-7-yl)propane-1,3-diyl bis(2-hexyldecanoate)] | 120 | 0.046 | 99 | 0.56 | 0.74 |
| CCCCCCCCCCCCC(CCCCCCC)C(=O)O[C@@H]1CC2(CCN(CCCCO)CC2)C[C@H]1OC(=O)C(CCCCCCC)CCCCCCCCCCCC (mixture of isomers) [Example 60, rac-(2R,3R)-8-(4-hydroxybutyl)-8-azaspiro[4.5]decane-2,3-diyl bis(2-heptyltetradecanoate)] | 94 | 0.117 | 98 | 1.6 | >50 |
| CCCCCCCCC(CCCCCC)C(=O)OCC(COC(=O)C(CCCCCC)CCCCCCCC)N1CCC2(CCN(CCCNS(=O)(=O)CC)CC2)CC1 (centres unmarked) [Example 11, 2-(9-(3-(ethylsulfonamido)propyl)-3,9-diazaspiro[5.5]undecan-3-yl)propane-1,3-diyl bis(2-hexyldecanoate)] | 121 | 0.080 | 99 | 3.7 | 13.8 |
| CCCCCCCCC(CCCCCC)C(=O)OCC(COC(=O)C(CCCCCC)CCCCCCCC)N1CCC2(CCN(CCCCO)C2)C1 (centres unmarked) [Example 33, 2-(7-(4-hydroxybutyl)-2,7-diazaspiro[4.4]nonan-2-yl)propane-1,3-diyl bis(2-hexyldecanoate)] | 115 | 0.090 | 99 | 0.22 | 0.29 |
| CCCCCCCCC(CCCCCC)C(=O)O[C@@H]1CC2(CCN(CCCCO)CC2)C[C@H]1OC(=O)C(CC)CCCCCCC (mixture of isomers) [Example 70, rac-(2R,3R)-3-((2-ethylnonanoyl)oxy)-8-(4-hydroxybutyl)-8-azaspiro[4.5]decan-2-yl 2-hexyldecanoate] | 116 | 0.110 | 98 | 3.0 | 1.2 |
| CCCCCCCCC(CCCCCC)C(=O)OCC(COC(=O)C(CCCCCC)CCCCCCCC)N1CC2(CCN(CCCCO)CC2)C1 (centres unmarked) [Example 34, 2-(7-(4-hydroxybutyl)-2,7-diazaspiro [3.5]nonan-2-yl)propane-1,3-diyl bis(2-hexyldecanoate)] | 130 | 0.040 | 99 | 2.1 | 3.8 |
| CCCCCCCCC(CC1CCC1)C(=O)OCC(COC(=O)C(CCCCCCCC)CC1CCC1)N1CCC2(CCN(CCCCO)CC2)CC1 (centres unmarked) [Example 30, 2-(9-(4-hydroxybutyl)-3,9-diazaspiro[5.5]undecan-3-yl)propane-1,3-diyl bis(2-(cyclobutylmethyl)decanoate)] | 102 | 0.030 | 99 | 12.6 | 3.3 |
| CCCCCCCCC(CCCCCC)C(=O)OCC(COC(=O)C(CCCCCCCC)CC1CCC1)N1CCC2(CCN(CCCCO)CC2)CC1 (centres unmarked) [Example 44, 3-((2-(cyclobutylmethyl)decanoyl)oxy)-2-(9-(4-hydroxybutyl)-3,9-diazaspiro[5.5]undecan-3-yl)propyl 2-hexyldecanoate] | 119 | 0.080 | 99 | 0.28 | 0.30 |
| CCCCCCCCC(CCCCCC)CC(=O)OCC(COC(=O)CC(CCCCCC)CCCCCCCC)N1CCC2(CCN(CCCCO)CC2)CC1 (centres unmarked) [Example 28, 2-(9-(4-hydroxybutyl)-3,9-diazaspiro[5.5]undecan-3-yl)propane-1,3-diyl bis(3-hexylundecanoate)] | 96 | 0.025 | 99 | 9.9 | 6.4 |
| CCCCCCCC(CCCCCCC)C(=O)O[C@H]1CC2(CCN(CCCCO)CC2)C[C@@H]1OC(=O)C(CCCCCCC)CCCCCCC (single isomer, unassigned) [Example 58, (2S*,3S*)-8-(4-hydroxybutyl)-8-azaspiro[4.5]decane-2,3-diyl bis(2-heptylnonanoate)] | 79 | 0.125 | 98 | 1.6 | 1.7 |
| CCCCCCCC(CCCCCCC)C(=O)OCC(COC(=O)C(CCCCCCC)CCCCCCC)N1CCC2(CCN(CCCCCO)C2)CC1 [Example 48, 2-(2-(5-hydroxypentyl)-2,8-diazaspiro[4.5]decan-8-yl)propane-1,3-diyl bis(2-heptylnonanoate)] | 127 | 0.093 | 100 | 0.76 | 1.0 |
| CCCCCCCCC(CC1CC=CC1)C(=O)OCC(COC(=O)C(CCCCCCCC)CC1CC=CC1)N1CCC2(CCN(CCCCO)CC2)CC1 (centres unmarked) [Example 35, 2-(9-(4-hydroxybutyl)-3,9-diazaspiro[5.5]undecan-3-yl)propane-1,3-diyl bis(2-(cyclopent-3-en-1-ylmethyl)decanoate)] | 102 | 0.040 | 99 | 21.3 | 1.4 |
| CCCCCCCCCC(=O)OCC(COC(=O)C(CCCCCC)CCCCCCCC)N1CCC2(CCN(CCCCO)CC2)CC1 (centres unmarked) [Example 42, 3-(decanoyloxy)-2-(9-(4-hydroxybutyl)-3,9-diazaspiro[5.5]undecan-3-yl)propyl 2-hexyldecanoate] | 100 | 0.080 | 99 | 42.7 | >50 |
| CCCCCCCC(CCCCCCC)C(=O)O[C@@H]1CC2(CCN(CCCCCO)CC2)C[C@H]1OC(=O)C(CCCCCCC)CCCCCCC (racemic) [Example 56, rac-(2R,3R)-8-(5-hydroxypentyl)-8-azaspiro[4.5]decane-2,3-diyl bis(2-heptylnonanoate)] | 81 | 0.063 | 98 | 0.60 | 0.96 |
| CCCCCCCC(CCCCCCC)CCC(=O)OCC(COC(=O)CCC(CCCCCCC)CCCCCCC)N1CCC2(CCN(CCCCO)CC2)CC1 [Example 40, 2-(9-(4-hydroxybutyl)-3,9-diazaspiro[5.5]undecan-3-yl)propane-1,3-diyl bis(4-heptylundecanoate)] | 117 | 0.080 | 100 | 5.6 | 3.6 |
| CCCCCCCCC(CCCCCC)C(=O)OCCC(CCOC(=O)C(CCCCCC)CCCCCCCC)N1CCC2(CCN(CCCCO)CC2)CC1 (centres unmarked) [Example 15, 3-(9-(4-hydroxybutyl)-3,9-diazaspiro[5.5]undecan-3-yl)pentane-1,5-diyl bis(2-hexyldecanoate)] | 110 | 0.120 | 100 | 4.0 | 2.7 |
| CCCCCCCC(CCCCCCC)C(=O)OCC(COC(=O)C(CCCCCCC)CCCCCCC)N1CCC2(CCN(CCCCO)CC2)C1 [Example 14, 2-(8-(4-hydroxybutyl)-2,8-diazaspiro[4.5]decan-2-yl)propane-1,3-diyl bis(2-heptylnonanoate)] | 114 | 0.036 | 100 | 1.5 | 2.5 |
| CCCCCCCCC(CCCCC)C(=O)OCC(COC(=O)C(CCCCC)CCCCCCCC)N1CCC2(CCN(CCCCO)CC2)CC1 (centres unmarked) [Example 29, 2-(9-(4-hydroxybutyl)-3,9-diazaspiro[5.5]undecan-3-yl)propane-1,3-diyl bis(2-pentyldecanoate)] | 130 | 0.050 | 100 | 0.82 | 1.0 |
